Where two headings read alike, the source gives them in different places.

6 molecules from US20030181376A1, “Control of crop pests & animal parasites through direct neuronal uptake” (priority 2000, published 2003) can be followed below.

Type in all cases: in vivo
One assay deals with Heterodera glycines. Briefly: Behavioural bioassay: orientation of H. glycines juveniles to an attractant disc (root exudate) after pre-incubation. Particulars: for EC50: read-out: concentration giving 50% reduction in attraction of H. glycines to an attractant. On the procedure: This assay was modified from that used by Grundler et al (Parasitology 103, 149-155; 1991). Soybean plants were grown in pots containing perlite in a tropical glasshouse until the root system was well established. Plants were carefully washed free of the perlite in running water and then several plants were placed in 200 cm3 dH2O in a conical flask which was covered in foil to keep light off the roots and then incubated in a Sanyo plant growth cabinet (16 hr light 24° C., 8 hr dark 20° C.) for 48hrs. The root exudate was collected and filter sterilised through 0.45 μm syringe filter.
Agarose discs covered in either dH2O or root exudate were made as follows. Agarose (3 ml, 1.5% solution made in dH2O) was poured into 6 cm petri dishes and allowed to surface dry. One ml of root exudate or dH2O was pipetted onto the plates, the surface covered by swirling and then left to completely evaporate. A cork borer was used to cut out 6 mm discs from the plate.
The oxime carbamate nematicide Aldicarb was obtained by putting 1 g Temik (10G, Rhône-Poulenc), in 10 ml chloroform to dissociate the oxime carbamate from its inert carrier. After 1 hour particulate material was removed by centrifugation. 100, 10 or 1 μl aliquots of the chloroform/aldicarb solution were pipetted into 1.5 ml microtubes and left to evaporate in a fume hood. This leaves 1, 0.1 and 0.01 mg aldicarb respectively in each tube. Addition of 1 ml dH2O to these tubes provides solutions of […] respectively.
Aliquots of juveniles of H. glycines were incubated for 16 hours in a range of concentrations of aldicarb, or in peptides generated that recognise the same acetylcholinesterase (AChE) target as aldicarb (see example IV). The effect of different concentrations of aldicarb or peptides on chemoreception was measured. Control worms were incubated in either water or PBS for the peptide experiments.
Treated nematode juveniles (approximately 300) in small volumes (typically 20 μl) dH2O were placed in the centre of 3.5 cm diameter petri dishes containing 1.5 ml 1.5% agarose. After evaporation of the water the worms were left for 1 hour to randomly distribute over the plate. A root exudate and a water agarose test disc were placed onto the plate equally spaced (5 mm) from the centre. The plates were left for 1 hour at room temperature in the dark. The experiments were carried out in replicates of 8-10 per concentration of aldicarb or peptide assayed. Controls in which nematodes were not treated with any chemical or peptide mimetic were also used for each experimental day to obtain a 100% rate of attraction. This allowed measurements of the extent of chemoattraction mediated by a test compound on any day.
The number of worms under each disc was counted using a dissecting microscope. In control experiments typically 2-4 times as many worms were counted under the root exudate disc as were under the water control disc. The numbers of responders minus the number under the control disc was used to calculate a response. With ˜300 animals on the plate the difference was around 40-80. The difference between the numbers under the attractant and the control discs was used to define the maximum response on that day of experiments.
Various concentrations of these compounds were tested with a modified bioassay. The data sets were analysed using probit analysis within a standard statistical package (SPSS) installed on a personal computer. […] Even higher concentrations of aldicarb and both AChE binding peptides were needed to inhibit movement than required to disrupt chemoreception.
Freshly hatched H. glycines were incubated for 16 hours at room temperature in various concentrations of Levamisole. They were tested using the bioassay in example 3.

Assay [1] relates to Heterodera glycines and Globodera pallida. Briefly: Behavioural bioassay, pooled data of H. glycines and G. pallida after pre-incubation in levamisole mimetic peptide. As to conditions: 16 h pre-treatment at 1×10^−6 M; data of two species pooled; values>1 indicate a chemoreceptive response.
Experimental: The number of worms under each disc was counted using a dissecting microscope. […] The numbers of responders minus the number under the control disc was used to calculate a response. […] The difference between the numbers under the attractant and the control discs was used to define the maximum response on that day of experiments.
50 mM CaCl2 was used as an attractant with the agarose discs. Those assays were carried out at 27° C. […] The peptide was also tested against the potato cyst nematode Globodera pallida using the same methods as described for H. glycines. G. pallida was incubated for 16 h in a solution containing the constrained peptide at 1.242×10^−8 M at room temperature. […]
In the next assay the test system is Globodera pallida. Briefly: Behavioural bioassay: orientation of G. pallida to an attractant disc (50 mM ZnCl2) after pre-incubation. As to conditions: 16 h pre-treatment at 1.242×10^−8 M.
The mark [2] stands for this setting: incubation for 16 hours, probit analysis.

Take CHNSHIRWC [control peptide]: the loss of chemoreception entry in the assay on Heterodera glycines (incubation at 2 μM) is “no loss of chemoreception”.

Take `c1ccc([C@H]2CN3CCSC3=N2)cc1` [Levamisole]: the signs of paralysis entry in the assay with Heterodera glycines (16 hours at room temperature in various concentrations) is “did not show any signs of paralysis”. Besides, the inhibition of chemoreception entry in the assay on Heterodera glycines (16 hours at room temperature in various low concentrations, FIG. 5) is on record as “inhibit chemoreception in a dose-dependent manner”.

Regarding CTTMHPRLC, the “ratio of nematodes under attractant disc versus control disc, 3 hours after the start of the bioassay” value with Heterodera glycines (H. glycines, 16 h pre-treatment at 1×10^−6 M, 3 hours after start of the bioassay) is 1.24±0.11. Besides, in assay [1], the “mean value ratio of nematodes under the disc with the attractant rather than without it” value was determined as 1.03±0.11.

With SVSVGMKPSPRP [linear 12 mer peptide], the EC50 in the assay with Heterodera glycines (setting [2]) is 3680 nM.

With CSINWRHHC [constrained 7 mer peptide], the “mean value ratio of nematodes under the disc with the attractant rather than without it” value with Globodera pallida (room temperature, bioassay at 20° C., 50 mM ZnCl2, values>1 indicate a chemoreceptive response) came out at 0.77±0.08. The “ratio of nematodes under attractant disc versus control disc, 3 hours after the start of the bioassay” value in the assay on Globodera pallida (3 hours after start of the bioassay) worked out at 0.78±0.06. Besides, the EC50 with Heterodera glycines (setting [2]) stood at 2.16 nM.

On to `CNC(=O)O/N=C/C(C)(C)SC` [aldicarb, Aldicarb], for which the “disruption of chemosensory attraction relative to paralysis” value with Heterodera glycines (H. glycines, 16 hours incubation) is listed as “disrupt chemosensory attraction completely at concentrations lower than those which cause paralysis”. Also, the EC50 with Heterodera glycines (Heterodera glycines, 16 h) was 0.0011 ± 0.00306 nM.
